Entries after “also recorded” stand apart in the source; their conditions may differ. Like-named read-outs stand apart in the source and are kept apart here. Marks after values point to notes of the source that are not given here.
Key:
[1] = tested on: apoptotic sunburn cells in the epidermis of SKH-1 mice; assay: UVB-induced apoptotic sunburn cells in the epidermis of SKH-1 mice after topical application; assay type: in vivo, mouse
Procedure: Chemicals and Animals. […] Female SKH-1 hairless mice (6 to 7 weeks old) were purchased from the Charles River Breeding Laboratories, and the animals were kept in an animal facility for at least one week before use at 7 to 8 weeks of age. Mice were given water and PURINA® Laboratory CHOW® 5001 diet from Ralston-Purina (St. […] For the analysis conducted herein, 5 mice were used per group. Treatment of Mice with UVB. […] The radiation was further calibrated with a model IL-1700 research radiometer/photometer (International Light, Newburyport, Mass.). Measurement of apoptotic sunburn cells. Identification of apoptoic sunburn cells was based morphologically on cell shrinkage and nuclear condensation due to fragmentation of the cells. […] Six hours after UVB, the animals were sacrificed and apoptotic sunburn cells in the epidermis were determined morphologically. […] Six hours after UVB, the animals were sacrificed and apoptotic sunburn cells in the epidermis were determined morphologically. […] Acetone Formulation. […] Six hours after UVB, the animals were sacrificed and apoptotic sunburn cells in the epidermis were determined morphologically. […] […] Formulations. […] Six hours after UVB the animals were sacrificed and apoptotic sunburn cells in the epidermis were determined morphologically. […] Six hours after UVB the animals were sacrificed and apoptotic sunburn cells in the epidermis were determined morphologically.

[2] = tested on: apoptotic sunburn cells in the epidermis of C57/BL/6J p53(+/+) mice; assay: UVB-induced apoptotic sunburn cells in C57/BL/6J p53(+/+) mice, topical caffeine; assay type: in vivo, mouse
Procedure: The time course for apoptosis was determined by utilizing morphologically distinct sunburn cells as the marker for apoptosis. […] Accordingly, studies with a C57/BL/6J mouse were performed with a 60 mJ/cm^2 dose of UVB.
Measurement of apoptotic sunburn cells. Identification of apoptoic sunburn cells was based morphologically on cell shrinkage and nuclear condensation due to fragmentation of the cells. […] The percentage of apoptotic sunburn cells in the epidermis (basal plus suprabasal layers) was calculated from the number of these cells per 100 cells counted from the entire 20 mm length of epidermis for each skin section.

[3] = Weight of mouse during topical treatment of UVB-pretreated high risk SKH-1 mice; assay type: in vivo
Procedure: Female SKH-1 mice were treated with 30 mJ/cm^2 of UVB twice a week for 20 weeks.

[4] = tested on: UVB-induced skin lesions in SKH-1 mice; assay: Prevention of UVB-induced skin (sunburn) lesions, sunscreen effect; assay type: in vivo, mouse; details: 4.8% caffeine or 8.0% caffeine sodium benzoate (24 μmoles) in 100 mg DERMABASE 30 minutes before UVB 180 mJ/cm^2 on two consecutive days (FIG. 2)
Procedure: The areas (mm^2) and the intensity of red color in UVB-induced skin lesion were estimated semi-quantitatively 5 days after first UVB treatment. The lesion index were calculated as the lesion area multiplied by the arbitrary intensity: 0, no lesion; 1 barely detectable red lesion; 2 moderate red lesion, and 3, bright red lesion.
Outdoor occupational human exposure to UVB or a sunbathing exposure in the summer has been reported to range from 50-100 mJ/cm^2 per day (Larko, et al. (1983) Clin. Exp. Dermatol. 8:279-285; Diffey (1991) Phys. Med. Biol. 36:299-328).

[5] = tested on: cyclin B1; assay: Epidermal cyclin B1 in UVB-treated mice, western blot and immunohistochemistry; assay type: in vivo, mouse
[6] = tested on: phospho-Chk2 (Ser387); assay: Epidermal phospho-Chk2 (Ser387) in UVB-treated mice, western blot; assay type: in vivo, mouse; details: topical immediately after UVB 30 mJ/cm2; 6 hours
[7] = tested on: UVB-induced skin tumors in high risk SKH-1 mice

## Cn1c(=O)c2c(ncn2C)n(C)c1=O [Caffeine, caffeine]
[1]; 6.2 μmole (each) in 100 μL acetone:water (9:1) immediately after UVB 30 mJ/cm^2 and at 30 and 120 min, 6 h, mean ± S.E.
  Percent Sunburn Cells, UVB: 0.64 ± 0.15%
[1]; 6.2 μmole in 100 μL acetone right after UVB 30 mJ/cm^2 and at 30 and 120 min, 6 h after UVB, mean ± S.E.
  Percent Apoptotic Sunburn Cells: 0.506 ± 0.013^a %
[1]; 100 mg formulation (2.4% caffeine or 4.0% caffeine sodium benzoate, 12.4 μmole, in DERMABASE; or commercial product) immediately after UVB 30 mJ/cm^2, 6 h
  Percent Sunburn Cells, UVB: 1.96 ± 0.20^a %
[1]; 0.6% Caffeine in 100 mg DERMABASE immediately after UVB 30 mJ/cm^2, 6 h
  Percent Sunburn Cells, UVB: 0.40 ± 0.18^a %
[1]; 1.2% Caffeine in 100 mg DERMABASE immediately after UVB 30 mJ/cm^2, 6 h
  Percent Sunburn Cells, UVB: 0.58 ± 0.12^a %
[1]; 2.4% Caffeine in 100 mg DERMABASE immediately after UVB 30 mJ/cm^2, 6 h
  Percent Sunburn Cells, UVB: 0.58 ± 0.14^a %
[1]; 3.6% Caffeine in 100 mg DERMABASE immediately after UVB 30 mJ/cm^2, 6 h
  Percent Sunburn Cells, UVB: 0.82 ± 0.10^a %
[1]; 4.8% Caffeine in 100 mg DERMABASE immediately after UVB 30 mJ/cm^2, 6 h
  Percent Sunburn Cells, UVB: 0.96 ± 0.13^a %
[1]; DERMABASE vehicle, equimolar amounts (Table 4)
  enhancement of UVB-induced apoptosis in the epidermis, applied in DERMABASE: more effective at enhancing UVB-induced apoptosis when applied to the skin in DERMABASE™ than when applied to the skin in acetone
[1]; Exp-1, 6.2 μmole in acetone:water (9:1) x3 after UVB 30 mJ/cm^2, 6 h
  Percent Apoptotic Sunburn Cells: 0.51 ± 0.01%
[1]; Exp-2, 6.2 μmole in acetone:water (9:1) x3 after UVB 30 mJ/cm^2, 6 h
  Percent Apoptotic Sunburn Cells: 0.48 ± 0.04%
[1]; Table 1, vs acetone group, 6.2 μmole x3 after UVB 30 mJ/cm^2, 6 h
  % Induction: 148%
[1]; Table 2, vs acetone, 6.2 μmole in acetone:water (9:1)
  % Induction: 205%
[1]; Table 3 Exp-1, 6.2 μmole
  % Induction: 155%
[1]; Table 3 Exp-2, 6.2 μmole
  % Induction: 129%
[1]; Table 4, 0.6% Caffeine in DERMABASE
  % Induction: 100%
[1]; Table 4, 1.2% Caffeine in DERMABASE
  % Induction: 190%
[1]; Table 4, 2.4% Caffeine in DERMABASE
  % Induction: 190%
[1]; Table 4, 3.6% Caffeine in DERMABASE
  % Induction: 270%
[1]; Table 5, vs DERMABASE, 100 mg formulation after UVB
  % Induction: 284%
[2]; female p53(+/+), 1.2 mg in 100 μL acetone immediately, 0.5 and 2 h after UVB 60 mJ/cm^2, 6 hours after UVB
  enhancement of formation of UVB-induced apoptotic sunburn cells vs UVB plus acetone: 127%
[2]; female p53(+/+), no UVB
  effect on apoptosis in non-UVB-treated mice: no effect
[2]; male p53(+/+), no UVB
  effect on apoptosis in non-UVB-treated epidermis: no effect
[3]; week 0, 1.2% CF in DERMABASE
  Weight of mouse: 30.3 ± 0.5 g
[3]; week 0, 3.6% CF in DERMABASE
  Weight of mouse: 30.5 ± 0.6 g
[3]; week 5, 1.2% CF in DERMABASE
  Weight of mouse: 29.6 ± 0.5 g
[3]; week 5, 3.6% CF in DERMABASE
  Weight of mouse: 30.0 ± 0.5 g
[3]; week 7, 1.2% CF in DERMABASE
  Weight of mouse: 29.5 ± 0.5 g
[3]; week 7, 3.6% CF in DERMABASE
  Weight of mouse: 29.6 ± 0.5 g
[3]; week 9, 1.2% CF in DERMABASE
  Weight of mouse: 30.0 ± 0.4 g
[3]; week 9, 3.6% CF in DERMABASE
  Weight of mouse: 29.8 ± 0.5 g
[3]; week 11, 1.2% CF in DERMABASE
  Weight of mouse: 30.0 ± 0.5 g
[3]; week 11, 3.6% CF in DERMABASE
  Weight of mouse: 30.1 ± 0.5 g
[4]
  formation of UVB-induced sunburn (skin) lesions: inhibited the formation of sunburn lesions; also recorded: inhibited UVB-induced sunburn lesions
[5]; UVB-treated mice, frozen sections, immunohistochemical
  percent of cyclin B1 positive cells in the epidermis: substantially enhanced
[5]; no UVB
  effect on cyclin B1 positive cells in the absence of UVB: little or no effect
[5]; topical immediately after UVB 30 mJ/cm2, western blot
  level of epidermal cyclin B1 vs UVB alone: increased substantially
[6]
  UVB-induced increase in the level of phospho-Chk2 (Ser387): inhibited
[7]; week 0, 1.2% CF in DERMABASE
  No. of large tumors (diameter > 5 mm): 0
  Tumor volume per mouse (all mice) (mm^3): 0 mm^3
  Tumor volume per tumor (mm^3): 0 mm^3
  Tumors per mouse: 0
[7]; week 0, 3.6% CF in DERMABASE
  No. of large tumors (diameter > 5 mm): 0
  Tumor volume per mouse (all mice) (mm^3): 0 mm^3
  Tumor volume per tumor (mm^3): 0 mm^3
  Tumors per mouse: 0
[7]; week 5, 1.2% CF in DERMABASE
  No. of large tumors (diameter > 5 mm): 0
  Tumor volume per mouse (all mice) (mm^3): 0.1 ± 0.0 mm^3
  Tumor volume per tumor (mm^3): 0.5 ± 0.0 mm^3
  Tumors per mouse: 0.1 ± 0.1
[7]; week 5, 3.6% CF in DERMABASE
  No. of large tumors (diameter > 5 mm): 0
  Tumor volume per mouse (all mice) (mm^3): 0.1 ± 0.0 mm^3
  Tumor volume per tumor (mm^3): 0.5 ± 0.0 mm^3
  Tumors per mouse: 0.2 ± 0.1
[7]; week 7, 1.2% CF in DERMABASE
  No. of large tumors (diameter > 5 mm): 0
  Tumor volume per mouse (all mice) (mm^3): 0.4 ± 0.2 mm^3
  Tumor volume per tumor (mm^3): 1.3 ± 0.5 mm^3
  Tumors per mouse: 0.4 ± 0.1
[7]; week 7, 3.6% CF in DERMABASE
  No. of large tumors (diameter > 5 mm): 0
  Tumor volume per mouse (all mice) (mm^3): 0.3 ± 0.1 mm^3
  Tumor volume per tumor (mm^3): 1.3 ± 0.7 mm^3
  Tumors per mouse: 0.2 ± 0.1
[7]; week 9, 1.2% CF in DERMABASE
  No. of large tumors (diameter > 5 mm): 0
  Tumor volume per mouse (all mice) (mm^3): 2.0 ± 1.0 mm^3
  Tumor volume per tumor (mm^3): 3.3 ± 1.5 mm^3
  Tumors per mouse: 0.6 ± 0.2
[7]; week 9, 3.6% CF in DERMABASE
  No. of large tumors (diameter > 5 mm): 0
  Tumor volume per mouse (all mice) (mm^3): 0.8 ± 0.5 mm^3
  Tumor volume per tumor (mm^3): 1.9 ± 1.1 mm^3
  Tumors per mouse: 0.4 ± 0.1
[7]; week 11, 1.2% CF in DERMABASE
  No. of large tumors (diameter > 5 mm): 0
  Tumor volume per mouse (all mice) (mm^3): 3.7 ± 1.4 mm^3
  Tumor volume per tumor (mm^3): 3.5 ± 1.0 mm^3
  Tumors per mouse: 1.1 ± 0.3
[7]; week 11, 3.6% CF in DERMABASE
  No. of large tumors (diameter > 5 mm): 0
  Tumor volume per mouse (all mice) (mm^3): 1.6 ± 0.6 mm^3
  Tumor volume per tumor (mm^3): 1.3 ± 0.4 mm^3
  Tumors per mouse: 1.2 ± 0.3

Source: US8029770B2 (Rutgers, The State University, priority 2003, dated 2011)
